The experiment addresses T1, recombinant hPTP1B (phosphotyrosine phosphatase 1B) (Homo sapiens, UniProt P18031).
T1 construct: but without the carboxy-terminal hydrophobic region (corresponding to 1-299 aa); made in house; host or cells: Sf9 insect cells (baculovirus, Bac-to-Bac, pFASTBAC)
T1 sequence (P18031 1-299): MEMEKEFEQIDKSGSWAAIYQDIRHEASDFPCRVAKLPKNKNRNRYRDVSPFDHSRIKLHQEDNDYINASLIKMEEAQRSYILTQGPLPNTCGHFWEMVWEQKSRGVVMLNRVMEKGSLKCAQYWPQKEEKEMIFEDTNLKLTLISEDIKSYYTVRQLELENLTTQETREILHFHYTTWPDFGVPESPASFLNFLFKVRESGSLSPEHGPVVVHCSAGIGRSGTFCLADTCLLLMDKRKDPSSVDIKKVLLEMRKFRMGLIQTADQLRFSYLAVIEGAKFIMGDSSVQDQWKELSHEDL
Briefly: Enzymatic test for inhibition of a phosphatase (phosphopeptide dephosphorylation / p-nitrophenyl phosphate cleavage). The class given is biochemical. As to conditions: Table 3 Biological activity; inhibition of PTP1B; table does not say which substrate format (A phosphopeptide or B pNPP). How it is done: Enzymatic Test Systems for Detecting Inhibition of a Phosphatase
The compounds of the formula I were tested for their phosphatase-inhibiting effect in an in vitro assay. The enzyme preparation and the performance of the assay was carried out as follows.
A) Cell Culture: • Sf9 cells (=Spodoptera frugiperda cell type; obtainable from invitrogen) are cultured in Grace's supplemented medium (Gibco-BRL) with 10% heat-inactivated fetal calf serum (Gibco-BRL) in spinner flasks at 28° C. in accordance with the protocol of Summers and Smith (A Manual for Methods for Baculovirus Vectors and Insect Culture Procedures [Bulletin No. 15555]. Texas A & M University, Texas Agricultural Experiment Station, College Station, Tex., 1987). • Construction of recombinant Baculovirus transfer vectors: cDNA coding for the regulatory and catalytic domains of human PTP1B, but without the carboxy-terminal hydrophobic region (corresponding to 1-299 aa) was obtained by polymerase chain reaction via primers with attached cloning sites and suitable cDNA templates (obtainable for example from invitrogen) and then cloned into baculovirus expression vectors (Amersham Pharmacia Biotech.). The recombinant baculoviruses were prepared with the aid of the Bac-to-Bac baculovirus expression system (obtainable from Gibco-BRL). The gene was cloned into the pFASTBAC donor plasmid (obtainable from Life Technologies). The resulting plasmid was transformed into competent DH10BAC Escherichia coli cells (obtainable from Life Technologies). After transposition and antibiotic selection, the recombinant plasmid DNA was isolated from selected E. coli colonies and then used for the transfection of Sf9 insect cells. The virus particle in the supernatant medium was amplified three times up to a viral stock volume of 500 ml.
B) Production of Recombinant Protein: • Baculovirus infection of a 500 ml spinner culture of Sf9 cells was essentially carried out as described by Summers and Smith (see above). Sf9 cells at a density of 1-3×10^6 cells/ml were pelleted by centrifugation at 300 g for 5 min, the supernatant was removed, and the cells were resuspended in a density of 1×10^7 cells/ml in a suitable recombinant viral stock (MOI 10). After careful shaking at room temperature for 1.5 h, fresh medium was added in order to achieve a cell density of 1×10^6 cells/ml. The cells were then cultured in the suspension at 28° C. for suitable periods after postinfection.
C) Cellular Fractionation and Complete Cell Extracts of Infected Sf9 Cells: • After the postinfection, aliquots were subjected to an analysis of protein expression by SDS-PAGE and Western blot analysis. The cellular fractionation was carried out as described (Cromlish, W. and Kennedy, B. Biochem. Pharmacol. 52: 1777-1785, 1996). Complete cell extracts were obtained from 1 ml aliquots of the infected Sf9 cells after certain times postinfection. The pelleted cells (300×g, 5 min) were washed once in phosphate-buffered saline (4° C.), resuspended in 50 μl of water and disrupted by repeated freezing/thawing. Protein concentrations were determined with the aid of the Bradford method and bovine serum albumin as standard.
A) Dephosphorylation of a Phosphopeptide: • This assay is based on the release of phosphate from a consensus substrate peptide which is detected in the nanomolar concentration range by the malachite green/ammonium molybdate method (Lanzetta, P. A., Alvarez, L. J., Reinach, P. S., Candia, O. A. Anal Biochem. 100: 95-97, 1979) adapted for the microtiter plate format. The dodecatrisphosphopeptide TRDIYETDYYRK (Biotrend, Cologne) corresponds to amino acids 1142-1153 of the catalytic domain of the insulin receptor and is (auto)phosphorylated on tyrosine residues 1146, 1150 and 1151. […]
Consider `COc1cccc(C(=O)N(Cc2ccccc2)Cc2ccc(-c3ccc(O)c(C(=O)O)c3)cc2)c1` [Example 12, 4′-{[Benzyl-(3-methoxybenzoyl)amino]methyl}-4-hydroxybiphenyl-3-carboxylic acid], for which the IC50 was found to be 1.6 µM. On to `COc1ccccc1CN(Cc1ccc(-c2ccc(O)c(C(=O)O)c2)cc1)C(=O)c1ccc(Br)cc1` [Example 1, 4′-{[(4-Bromobenzoyl)-(2-methoxybenzyl)amino]methyl}-4-hydroxybiphenyl-3-carboxylic acid], for which the IC50 was determined as 1.2 µM. Then `COc1cccc(C(=O)N(Cc2ccc(-c3ccc(O)c(C(=O)O)c3)cc2)Cc2ccccc2OC)c1` [Example 4, 4-Hydroxy-4′-{[(3-methoxybenzoyl)-(2-methoxybenzyl)amino]-methyl}biphenyl-3-carboxylic acid], with 1.4 µM; and `Cc1ccc(CN(Cc2ccc(-c3ccc(O)c(C(=O)O)c3)cc2)C(=O)c2ccc3c(c2)OCO3)cc1` [Example 19, 4′-{[(Benzo[1,3]dioxole-5-carbonyl)-(4-methylbenzyl)amino]methyl}-4-hydroxy-biphenyl-3-carboxylic acid], with 1.28 µM. Turning to `CCCCC(=O)N(Cc1ccc(-c2ccc(O)c(C(=O)O)c2)cc1)CC1CC1` [Example 8, 4′-[(Cyclopropylmethylpentanoylamino)methyl]-4-hydroxybiphenyl-3-carboxylic acid], the IC50 came out at 1.9 µM. In the case of `O=C(O)c1cc(-c2ccc(CN(Cc3ccc(F)cc3)C(=O)c3ccc4c(c3)OCO4)cc2)ccc1O` [Example 16, 4′-{[(Benzo[1,3]dioxole-5-carbonyl)-(4-fluorobenzyl)amino]methyl}-4-hydroxy-biphenyl-3-carboxylic acid], the concentration for half-maximal inhibition (IC50) came out at 1.9 µM.

Regarding `O=C(O)c1cc(-c2ccc(CN(Cc3ccccc3)C(=O)c3ccc4c(c3)OCO4)cc2)ccc1O` [Example 3, 4′-{[(Benzo[1,3]dioxole-5-carbonyl)benzylamino]methyl}-4-hydroxybiphenyl-3-carboxylic acid], the half-maximal inhibitory concentration (IC50) was found to be 1.5 µM.

Take `O=C(O)c1cc(-c2ccc(CN(CC3CC3)C(=O)c3ccc4c(c3)OCO4)cc2)ccc1O` [Example 14, 4′-{[(Benzo[1,3]dioxole-5-carbonyl)cyclopropylmethylamino]methyl}-4-hydroxybiphenyl-3-carboxylic acid]: the concentration for half-maximal inhibition (IC50) amounted to 1.8 µM. Then `COc1cccc(C(=O)N(Cc2ccc(C)cc2)Cc2ccc(-c3ccc(O)c(C(=O)O)c3)cc2)c1` [Example 13, 4-Hydroxy-4′-{[(3-methoxybenzoyl)-(4-methylbenzyl)amino]methyl}-biphenyl-3-carboxylic acid], with 1.7 µM.

For `Cc1ccc(CN(Cc2ccc(-c3ccc(O)c(C(=O)O)c3)cc2)C(=O)C2CCCCC2)cc1` [Example 10, 4′-{[Cyclohexanecarbonyl-(4-methylbenzyl)amino]methyl}-4-hydroxybiphenyl-3-carboxylic acid], the concentration for half-maximal inhibition (IC50) is 1.6 µM. Then `O=C(O)c1cc(-c2ccc(CN(Cc3ccc(F)cc3)C(=O)/C=C/c3ccccc3)cc2)ccc1O` [Example 18, 4′-{[(4-Fluorobenzyl)-(3-phenylacryloyl)amino]methyl}-4-hydroxybiphenyl-3-carboxylic acid], with 1.45 µM. Then `Cc1ccc(CN(Cc2ccc(-c3ccc(O)c(C(=O)O)c3)cc2)C(=O)c2ccc(Br)cc2)cc1` [Example 7, 4′-{[(4-Bromobenzoyl)-(4-methylbenzyl)amino]methyl}-4-hydroxybiphenyl-3-carboxylic acid], with 1 µM. Then `COc1ccc(CN(Cc2ccc(-c3ccc(O)c(C(=O)O)c3)cc2)C(=O)c2ccc3c(c2)OCO3)cc1` [Example 2, 4′-{[(Benzo[1,3]dioxole-5-carbonyl)-(4-methoxybenzyl)amino]-methyl}-4-hydroxybiphenyl-3-carboxylic acid], with 1.2 µM; and `O=C(O)c1cc(-c2ccc(CN(Cc3ccccc3)C(=O)c3ccco3)cc2)ccc1O` [Example 22, 4′-{[Benzyl(furan-2-carbonyl)amino]methyl}-4-hydroxybiphenyl-3-carboxylic acid], with 1.3 µM; and `CCCCCN(Cc1ccc(-c2ccc(O)c(C(=O)O)c2)cc1)C(=O)c1ccc2c(c1)OCO2` [Example 15, 4′-{[(Benzo[1,3]dioxole-5-carbonyl)pentylamino]methyl}-4-hydroxybiphenyl-3-carboxylic acid], with 1.5 µM. `O=C(O)c1cc(-c2ccc(CN(Cc3ccc(F)cc3)C(=O)c3ccc(Br)cc3)cc2)ccc1O` [Example 23, 4′-{[(4-Bromobenzoyl)-(4-fluorobenzyl)amino]methyl}-4-hydroxybiphenyl-3-carboxylic acid]: the IC50 was found to be 0.5 µM. For `O=C(O)c1cc(-c2ccc(CN(C(=O)c3ccc4c(c3)OCO4)C3CCCC3)cc2)ccc1O` [Example 20, 4′-{[(Benzo[1,3]dioxole-5-carbonyl)cyclopentylamino]methyl}-4-hydroxy-biphenyl-3-carboxylic acid], the IC50 is 1.8 µM.

In the case of `CCCCC(=O)N(Cc1ccc(OC)cc1)Cc1ccc(-c2ccc(O)c(C(=O)O)c2)cc1` [Example 24, 4-Hydroxy-4′-{[(4-methoxybenzyl)pentanoylamino]methyl}-biphenyl-3-carboxylic acid], the IC50 came out at 0.6 µM.

With `COc1ccccc1CN(Cc1ccc(-c2ccc(O)c(C(=O)O)c2)cc1)C(=O)C1CCCCC1` [Example 6, 4′-{[Cyclohexanecarbonyl-(2-methoxybenzyl)amino]methyl}-4-hydroxybiphenyl-3-carboxylic acid], the 50% inhibitory concentration (IC50) was 1.3 µM.

In the case of `O=C(O)c1cc(-c2ccc(CN(CC3CC3)C(=O)C3CCCCC3)cc2)ccc1O` [Example 5, 4′-[(Cyclohexanecarbonylcyclopropylmethylamino)methyl]-4-hydroxybiphenyl-3-carboxylic acid], the 50% inhibitory concentration (IC50) is 1.6 µM. Then `O=C(O)c1cc(-c2ccc(CN(CCc3ccccc3)C(=O)c3ccc4c(c3)OCO4)cc2)ccc1O` [Example 11, 4′-{[(Benzo[1,3]dioxole-5-carbonyl)phenethylamino]methyl}-4-hydroxybiphenyl-3-carboxylic acid], with 1.6 µM. Then `O=C(O)c1cc(-c2ccc(CN(Cc3ccccc3)C(=O)c3ccc(Br)cc3)cc2)ccc1O` [Example 21, 4′-{[Benzyl-(4-bromobenzoyl)amino]methyl}-4-hydroxybiphenyl-3-carboxylic acid], with 0.6 µM.

On to `COc1cccc(C(=O)N(Cc2ccc(F)cc2)Cc2ccc(-c3ccc(O)c(C(=O)O)c3)cc2)c1` [Example 17, 4′-{[(4-Fluorobenzyl)-(3-methoxybenzoyl)amino]methyl}-4-hydroxybiphenyl-3-carboxylic acid], for which the IC50 was 1.6 µM.

The record behind these values is patent US7453009B2, “Hydroxybiphenyl carboxylic acids and derivatives, method for producing the same and their use” (Sanofi-Aventis Deutschland GmbH, priority 2004, dated 2008).
